Earlier results, collected in patent US20140302138A1, “EXTENDED RELEASE PHARMACEUTICAL COMPOSITIONS CONTAINING CARBAMAZEPINE” (priority 2011, published 2014).

- solubility in acetone (acetone): soluble
- solubility in alcohol (alcohol): soluble
- solubility in water (water): practically insoluble
SMILES: NC(=O)N1c2ccccc2C=Cc2ccccc21 [Carbamazepine, 5H-dibenzo[b,f]azepine-5-carboxamide]
